# Test results: publication PMC4669708 (Cell Death & Disease, 2015)
# How the values were obtained:
# Assay in all cases: c-ponatinib pulldown LC-MS/MS
# Format in all cases: binding
# [1] = biological target: BLK (Homo sapiens, UniProt P51451)
# Description: (§1) Drug-affinity matrices were prepared as described previously.[51] In brief, 25 nmol of c-ponatinib were immobilized on 50 μl NHS-activated Sepharose 4 Fast Flow beads (GE Healthcare Bio-Sciences AB, Uppsala, Sweden). 10 mg whole cell lysate was used as protein input per replicate. Affinity chromatography and elution were performed in duplicate. After elution, the enriched proteins were reduced with dithiothreitol (DTT) and cysteine residues were alkylated by incubation with iodoacetamide. The samples were digested with modified porcine trypsin (Promega). Five percent of the digested eluates were purified and concentrated by C18 reversed-phase material. Subsequently, samples were analyzed in duplicates by gel-free one-dimensional LCMS.
# (§2) Precursor and MS/MS peaks were extracted from the RAW files and saved in the MGF format using msconvert tool (ProteoWizard Library v2.1.2708, www.proteowizard.sourceforge.net) for subsequent protein identification. An initial database search was performed with broader mass tolerance and conservative score threshold to re-calibrate the mass lists for optimal final protein identification. For the initial protein database search, Mascot (www.matrixscience.com, v2.3.02) was used. Error tolerances on the precursor and fragment ions were ±10 p.p.m. and ±0.6 Da, respectively, and the database search limited to fully-tryptic peptides with maximum one missed cleavage, carbamidomethyl cysteine and methionine oxidation set as fixed and variable modifications, respectively. The Mascot peptide ion score threshold was set to 30, and at least three peptide identifications per protein were required. Searches were performed against the human UniProtKB/SwissProt database (www.uniprot.org release 2013.01) including all protein isoforms. The initial peptide identifications were used to deduce independent linear transformations for precursor and fragment masses that would minimize the mean square deviation of measured masses from theoretical. Re-calibrated mass list files were searched against the same human protein database by a combination of Mascot and Phenyx (GeneBio SA, Geneva, Switzerland; version 2.5.14) search engines using narrower mass tolerances (±4 p.p.m. and ±0.3 Da). One missed tryptic cleavage site was allowed. Carbamidomethyl cysteine was set as a fixed modification and oxidized methionine was set as a variable modification. To validate the proteins, Mascot and Phenyx output files were processed by internally developed parsers. Proteins with ≥2 unique peptides above a score T1, or with a single peptide above a score T2 were selected as unambiguous identifications. Additional peptides for these validated proteins with score >T3 were also accepted. For Mascot searches, the following thresholds were used: T1=14, T2=40 and T3=10; Phenyx thresholds were set to 4.2, 4.75 and 3.5, respectively (P-value<10^−3). The validated proteins retrieved by the two algorithms were merged, any spectral conflicts discarded and grouped according to shared peptides. A false discovery rate of <1% for protein identifications and <0.1% for peptides (including the ones exported with lower scores) was determined by applying the same procedure against a database of reversed protein sequences. […] In addition to Mascot protein scores that were proposed as an estimate of protein abundance by the original algorithm, the modified version also included Phenyx protein scores and spectral counts. The algorithm first estimated three measure-specific P-values for each putative interaction, and, in contrast to,[69] P-value calculation utilized the quantiles of the measurements rather than the original data. The Fisher's method was used to combine the three resulting P-values into a single P-value for drug–protein interaction specificity. We have also correlated interaction P-values with the magnitude of competition effect represented by the fold reduction of spectral counts on free compound competition. […]
# [2] = biological target: CSK (Homo sapiens, UniProt P41240)
# Description: as §1, §2
# [3] = biological target: HCK (Homo sapiens, UniProt P08631)
# Description: as §1, §2
# [4] = biological target: HSPA8 (Homo sapiens, UniProt P11142)
# Description: as §1, §2
# [5] = biological target: HSPA9 (Homo sapiens, UniProt P38646)
# Description: as §1, §2
# [6] = biological target: JAK1 (Homo sapiens, UniProt P23458)
# Description: as §1, §2
# [7] = biological target: MAP4K1 (Homo sapiens, UniProt Q92918)
# Description: as §1, §2
# [8] = biological target: TNIK (Homo sapiens, UniProt Q9UKE5)
# Description: as §1, §2
# [9] = biological target: UNC119 (Homo sapiens, UniProt Q13432)
# Description: as §1, §2
# [10] = biological target: T1, YWHAB (Homo sapiens, UniProt P31946)
# T1 sequence (P31946 1-246): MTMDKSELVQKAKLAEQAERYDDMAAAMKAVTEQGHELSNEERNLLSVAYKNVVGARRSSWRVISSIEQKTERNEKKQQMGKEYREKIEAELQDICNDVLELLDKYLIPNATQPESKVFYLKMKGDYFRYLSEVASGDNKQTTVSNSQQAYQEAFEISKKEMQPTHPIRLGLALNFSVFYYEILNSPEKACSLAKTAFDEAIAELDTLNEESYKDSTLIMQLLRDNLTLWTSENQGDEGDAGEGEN
# Description: as §1, §2
# [11] = biological target: T2, YWHAH (Homo sapiens, UniProt Q04917)
# T2 sequence (Q04917 1-246): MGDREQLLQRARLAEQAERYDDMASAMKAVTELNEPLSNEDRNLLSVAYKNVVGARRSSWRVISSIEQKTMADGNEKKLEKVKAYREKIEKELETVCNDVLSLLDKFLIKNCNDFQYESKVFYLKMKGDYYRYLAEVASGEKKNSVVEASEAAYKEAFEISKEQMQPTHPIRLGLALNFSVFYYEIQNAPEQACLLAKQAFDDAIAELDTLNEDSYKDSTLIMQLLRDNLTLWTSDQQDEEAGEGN
# Description: as §1, §2
# Chain of HSPA9 (P38646 47-679): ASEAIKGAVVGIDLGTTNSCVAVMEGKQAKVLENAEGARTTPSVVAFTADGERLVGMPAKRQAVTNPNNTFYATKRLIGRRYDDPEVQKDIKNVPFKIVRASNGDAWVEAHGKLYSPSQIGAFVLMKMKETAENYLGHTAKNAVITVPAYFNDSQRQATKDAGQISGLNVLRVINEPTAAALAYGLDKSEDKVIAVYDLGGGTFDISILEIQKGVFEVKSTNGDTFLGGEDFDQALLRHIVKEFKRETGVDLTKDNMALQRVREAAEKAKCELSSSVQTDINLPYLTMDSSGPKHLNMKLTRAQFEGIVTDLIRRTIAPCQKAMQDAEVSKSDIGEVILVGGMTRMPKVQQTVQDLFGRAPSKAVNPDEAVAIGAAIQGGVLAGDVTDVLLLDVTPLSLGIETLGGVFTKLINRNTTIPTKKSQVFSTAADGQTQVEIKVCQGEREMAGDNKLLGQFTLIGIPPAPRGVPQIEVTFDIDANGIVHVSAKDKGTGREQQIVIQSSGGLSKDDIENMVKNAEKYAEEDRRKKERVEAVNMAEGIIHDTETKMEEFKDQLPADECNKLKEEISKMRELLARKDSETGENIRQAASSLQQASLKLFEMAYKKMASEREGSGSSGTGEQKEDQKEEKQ
# Chain of BLK (P51451 whole entry): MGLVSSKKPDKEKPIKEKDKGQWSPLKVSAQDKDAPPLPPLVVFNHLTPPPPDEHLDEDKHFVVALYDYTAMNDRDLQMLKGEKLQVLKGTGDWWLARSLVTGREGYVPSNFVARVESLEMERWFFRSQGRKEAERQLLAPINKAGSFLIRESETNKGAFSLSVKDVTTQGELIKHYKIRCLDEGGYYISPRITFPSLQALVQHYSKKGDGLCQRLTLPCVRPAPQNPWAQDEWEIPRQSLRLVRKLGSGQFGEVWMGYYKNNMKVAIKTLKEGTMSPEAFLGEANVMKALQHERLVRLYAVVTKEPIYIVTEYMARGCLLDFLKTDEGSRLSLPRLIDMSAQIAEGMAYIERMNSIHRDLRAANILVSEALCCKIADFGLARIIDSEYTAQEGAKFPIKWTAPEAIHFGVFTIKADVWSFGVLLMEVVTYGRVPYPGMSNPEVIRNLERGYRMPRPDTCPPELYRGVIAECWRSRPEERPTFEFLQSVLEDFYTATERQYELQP
# Chain of JAK1 (P23458 whole entry): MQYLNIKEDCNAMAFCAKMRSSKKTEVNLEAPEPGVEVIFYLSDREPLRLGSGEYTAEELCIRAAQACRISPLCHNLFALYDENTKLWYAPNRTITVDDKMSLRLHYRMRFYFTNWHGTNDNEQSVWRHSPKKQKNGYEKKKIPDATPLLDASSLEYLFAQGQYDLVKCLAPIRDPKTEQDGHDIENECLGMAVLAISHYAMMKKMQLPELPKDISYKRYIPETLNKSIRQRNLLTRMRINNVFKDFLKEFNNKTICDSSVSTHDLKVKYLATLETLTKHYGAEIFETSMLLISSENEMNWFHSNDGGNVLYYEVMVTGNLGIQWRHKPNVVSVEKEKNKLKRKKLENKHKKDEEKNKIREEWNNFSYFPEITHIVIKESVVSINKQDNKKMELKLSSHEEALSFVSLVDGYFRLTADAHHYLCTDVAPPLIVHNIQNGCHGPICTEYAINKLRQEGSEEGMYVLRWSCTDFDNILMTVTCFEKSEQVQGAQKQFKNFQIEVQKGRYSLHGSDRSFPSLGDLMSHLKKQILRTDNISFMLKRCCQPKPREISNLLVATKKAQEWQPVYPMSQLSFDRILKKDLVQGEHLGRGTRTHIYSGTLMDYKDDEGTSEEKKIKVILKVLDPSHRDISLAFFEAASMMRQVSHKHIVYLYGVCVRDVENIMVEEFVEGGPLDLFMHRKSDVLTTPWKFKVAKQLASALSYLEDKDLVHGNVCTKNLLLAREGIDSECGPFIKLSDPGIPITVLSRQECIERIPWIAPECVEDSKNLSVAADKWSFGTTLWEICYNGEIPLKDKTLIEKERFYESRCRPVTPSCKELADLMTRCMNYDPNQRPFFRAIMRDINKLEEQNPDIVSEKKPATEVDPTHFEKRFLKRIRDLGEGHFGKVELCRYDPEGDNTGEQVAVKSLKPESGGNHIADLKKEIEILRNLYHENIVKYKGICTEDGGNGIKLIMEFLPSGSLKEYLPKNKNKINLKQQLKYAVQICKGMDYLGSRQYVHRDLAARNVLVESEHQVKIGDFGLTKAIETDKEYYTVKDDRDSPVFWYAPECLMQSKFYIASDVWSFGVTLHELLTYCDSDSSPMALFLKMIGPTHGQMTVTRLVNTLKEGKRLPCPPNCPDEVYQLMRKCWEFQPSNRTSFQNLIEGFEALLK
# Chain of HSPA8 (P11142 whole entry): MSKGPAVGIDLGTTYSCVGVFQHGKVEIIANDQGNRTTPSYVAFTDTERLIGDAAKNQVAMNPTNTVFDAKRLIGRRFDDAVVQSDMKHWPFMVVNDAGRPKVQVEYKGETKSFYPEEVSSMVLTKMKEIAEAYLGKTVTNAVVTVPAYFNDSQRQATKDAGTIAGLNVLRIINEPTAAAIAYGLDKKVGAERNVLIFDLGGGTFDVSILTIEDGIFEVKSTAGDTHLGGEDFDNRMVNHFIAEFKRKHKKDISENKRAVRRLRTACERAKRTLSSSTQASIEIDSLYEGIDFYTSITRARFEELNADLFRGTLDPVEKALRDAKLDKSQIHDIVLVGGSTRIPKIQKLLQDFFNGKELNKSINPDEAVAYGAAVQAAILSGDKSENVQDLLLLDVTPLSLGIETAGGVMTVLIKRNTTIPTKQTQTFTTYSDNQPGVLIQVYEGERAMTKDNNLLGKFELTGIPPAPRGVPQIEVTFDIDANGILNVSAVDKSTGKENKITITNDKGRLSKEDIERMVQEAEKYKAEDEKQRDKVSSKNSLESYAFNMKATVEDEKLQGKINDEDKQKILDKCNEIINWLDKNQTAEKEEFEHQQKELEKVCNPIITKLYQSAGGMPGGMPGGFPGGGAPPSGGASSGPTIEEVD
# Chain of MAP4K1 (Q92918 whole entry): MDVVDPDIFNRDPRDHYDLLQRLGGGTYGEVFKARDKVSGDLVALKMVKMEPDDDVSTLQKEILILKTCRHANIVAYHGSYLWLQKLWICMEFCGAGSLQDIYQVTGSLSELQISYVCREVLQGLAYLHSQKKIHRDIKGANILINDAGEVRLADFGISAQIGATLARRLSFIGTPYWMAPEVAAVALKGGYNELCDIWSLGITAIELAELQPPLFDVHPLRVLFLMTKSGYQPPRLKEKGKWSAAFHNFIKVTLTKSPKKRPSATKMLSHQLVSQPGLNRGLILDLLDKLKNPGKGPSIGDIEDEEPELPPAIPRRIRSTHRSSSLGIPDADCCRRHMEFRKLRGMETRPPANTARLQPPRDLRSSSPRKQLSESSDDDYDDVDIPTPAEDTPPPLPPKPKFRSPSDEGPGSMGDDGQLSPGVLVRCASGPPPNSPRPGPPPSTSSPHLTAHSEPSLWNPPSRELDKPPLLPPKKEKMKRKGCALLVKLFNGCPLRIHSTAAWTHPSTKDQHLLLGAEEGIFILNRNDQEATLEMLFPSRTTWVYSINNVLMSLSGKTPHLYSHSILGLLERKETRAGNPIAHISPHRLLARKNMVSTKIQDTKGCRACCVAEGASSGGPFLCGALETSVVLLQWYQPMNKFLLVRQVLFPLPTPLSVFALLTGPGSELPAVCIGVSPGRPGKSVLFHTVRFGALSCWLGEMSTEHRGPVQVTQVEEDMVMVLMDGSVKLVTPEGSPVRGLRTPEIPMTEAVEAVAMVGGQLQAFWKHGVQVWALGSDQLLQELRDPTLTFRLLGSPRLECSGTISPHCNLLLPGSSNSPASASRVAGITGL
# Chain of HCK (P08631 whole entry): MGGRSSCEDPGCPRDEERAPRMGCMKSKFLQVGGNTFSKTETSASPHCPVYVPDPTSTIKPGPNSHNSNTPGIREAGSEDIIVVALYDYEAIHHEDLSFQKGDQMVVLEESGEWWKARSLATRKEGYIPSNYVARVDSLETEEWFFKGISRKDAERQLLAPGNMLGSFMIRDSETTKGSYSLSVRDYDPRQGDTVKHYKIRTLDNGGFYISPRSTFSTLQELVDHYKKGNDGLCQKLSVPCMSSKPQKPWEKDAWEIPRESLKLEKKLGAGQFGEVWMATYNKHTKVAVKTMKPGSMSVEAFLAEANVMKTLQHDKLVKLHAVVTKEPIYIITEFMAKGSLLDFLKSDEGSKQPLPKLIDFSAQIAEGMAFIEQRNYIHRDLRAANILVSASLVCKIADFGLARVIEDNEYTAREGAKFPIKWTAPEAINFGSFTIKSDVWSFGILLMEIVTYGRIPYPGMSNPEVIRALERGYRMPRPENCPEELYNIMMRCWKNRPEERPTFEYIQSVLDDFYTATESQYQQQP
# Chain of CSK (P41240 whole entry): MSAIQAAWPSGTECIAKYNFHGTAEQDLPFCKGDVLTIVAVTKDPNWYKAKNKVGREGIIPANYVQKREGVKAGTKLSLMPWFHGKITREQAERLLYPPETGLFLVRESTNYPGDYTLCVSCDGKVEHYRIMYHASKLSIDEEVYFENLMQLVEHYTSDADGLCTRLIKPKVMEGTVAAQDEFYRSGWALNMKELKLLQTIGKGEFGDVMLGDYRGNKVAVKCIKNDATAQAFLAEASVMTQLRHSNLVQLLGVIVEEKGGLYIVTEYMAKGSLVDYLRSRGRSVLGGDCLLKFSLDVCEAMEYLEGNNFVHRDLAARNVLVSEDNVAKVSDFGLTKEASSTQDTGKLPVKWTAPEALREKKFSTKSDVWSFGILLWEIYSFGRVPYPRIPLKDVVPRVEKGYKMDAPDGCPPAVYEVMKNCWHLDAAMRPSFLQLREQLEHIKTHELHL
smiles,measurement,setting,value
Cc1ccc(C(=O)Nc2ccc(CN3CCN(CCCN)CC3)c(C(F)(F)F)c2)cc1C#Cc1cnc2cccnn12 [c-ponatinib],Av. SC comp.,[1]; + free ponatinib,0
same,Total SC comp.,[1]; + free ponatinib,0
same,Av. SC,[1]; no competitor,9.5
same,Total SC,[1]; no competitor,38
same,Av. SC comp.,[2]; + free ponatinib,4.5
same,Total SC comp.,[2]; + free ponatinib,18
same,Av. SC,[2]; no competitor,52.25
same,Total SC,[2]; no competitor,209
same,Av. SC comp.,[3]; + free ponatinib,0
same,Total SC comp.,[3]; + free ponatinib,0
same,Av. SC,[3]; no competitor,6
same,Total SC,[3]; no competitor,24
same,Av. SC comp.,[4]; + free ponatinib,17.25
same,Total SC comp.,[4]; + free ponatinib,69
same,Av. SC,[4]; no competitor,29.25
same,Total SC,[4]; no competitor,117
same,Av. SC comp.,[5]; + free ponatinib,0
same,Total SC comp.,[5]; + free ponatinib,0
same,Av. SC,[5]; no competitor,3.25
same,Total SC,[5]; no competitor,13
same,Av. SC comp.,[6]; + free ponatinib,0
same,Total SC comp.,[6]; + free ponatinib,0
same,Av. SC,[6]; no competitor,21.5
same,Total SC,[6]; no competitor,86
same,Av. SC comp.,[7]; + free ponatinib,2.5
same,Total SC comp.,[7]; + free ponatinib,10
same,Av. SC,[7]; no competitor,46.75
same,Total SC,[7]; no competitor,187
same,Av. SC comp.,[8]; + free ponatinib,0
same,Total SC comp.,[8]; + free ponatinib,0
same,Av. SC,[8]; no competitor,26.75
same,Total SC,[8]; no competitor,107
same,Av. SC comp.,[9]; + free ponatinib,0
same,Total SC comp.,[9]; + free ponatinib,0
same,Av. SC,[9]; no competitor,20.5
same,Total SC,[9]; no competitor,82
same,Av. SC comp.,[10]; + free ponatinib,1
same,Total SC comp.,[10]; + free ponatinib,4
same,Av. SC,[10]; no competitor,7
same,Total SC,[10]; no competitor,28
same,Av. SC comp.,[11]; + free ponatinib,0.25
same,Total SC comp.,[11]; + free ponatinib,1
same,Av. SC,[11]; no competitor,6
same,Total SC,[11]; no competitor,24
